In US4855284A, “Calcium and magnesium complexes of phytohemagglutinin-polyheteroglycans, their preparation and pharmaceutical formulations” (Intex Pharmazeutische Produkte AG, priority 1985, dated 1989):

Columns and labels:
[1] = test system: edema induced by carrageen in the rat paw; assay: carrageen rat paw test (Winter), antiinflammatory action; type: in vivo, rat (female, CFY strain); settings: 10 mg/kg oral
[2] = test system: ulcers and mucosal edema in the stomach; assay: alcohol ulcer test (Robert), cytoprotective action; type: in vivo, Wistar rats; settings: oral 500 mg/kg, 10 animals
Experimental: The cytoprotective action was tested by the alcohol ulcer test of A. J. E. Robert and coworkers, Am. J. Physiol. […] Liver Physiol. […] Usually, Wistar rats in groups with 10 animals in each are kept without food for 1 day and then treated once through a stomach tube with 1 to 2 ml of anhydrous ethanol which contains 0.5% hydrochloric acid.
After the death of the animals, the length of the resulting ulcers and the size of the resulting mucosal edema in the stomach are measured and compared with control animals not treated with the product. A basic aluminum complex of sucrose polysulfate (sucralfate, see below) was used for comparison.

Molecule | Inhibition in % (of swelling) [1] [%] | Inhibition in %, Edema [2] [%] | Inhibition in %, Ulcer [2] [%]
COc1ccc2c(c1)c(CC(=O)O)c(C)n2C(=O)c1ccc(Cl)cc1 [Indomethacin] | 46 | – | –
Sucralfate | – | 79 | 56
